Experiment [1] concerns the target T1, His-GST-TVMV-hRIPK1(1-324) (Homo sapiens, UniProt Q13546).
T1 construct: The coding region of human RIPK1(1-324) flanked by NdeI site at 5′ end; made in house; host or cells: Spodoptera frugiperda Sf9 insect cells (baculovirus, Bac-to-Bac)
T1 sequence (Q13546 1-324): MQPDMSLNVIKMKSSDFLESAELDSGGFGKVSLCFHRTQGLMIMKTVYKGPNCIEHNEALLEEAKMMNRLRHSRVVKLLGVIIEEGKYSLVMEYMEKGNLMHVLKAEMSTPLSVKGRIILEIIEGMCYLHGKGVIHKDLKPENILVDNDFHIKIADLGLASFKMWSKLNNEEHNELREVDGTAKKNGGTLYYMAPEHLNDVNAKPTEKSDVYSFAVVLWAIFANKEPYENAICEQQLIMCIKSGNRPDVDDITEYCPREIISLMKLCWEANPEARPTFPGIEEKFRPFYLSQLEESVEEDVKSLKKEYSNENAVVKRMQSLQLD
Nature of the experiment: biochemical. It counts as binding.

For experiment [2], the system named is MLKL phosphorylation in HT29-L23 human colorectal adenocarcinoma cells. Nature of the experiment: MLKL phosphorylation high-content assay. It counts as cell-based.
Setting [3] is: HTRF probe displacement, 1 h at rt, read-out: RIPK1 IC50.
The mark [4] stands for this setting: Homo sapiens, 6 h, read-out: pMLKL IC50, HT29-L23 cells, necroptosis induced with TNFα, SMAC mimetic and Z-VAD, 6 h, maximal inhibition defined by Nec1s.
Setting [5] is: read-out: pMLKL IC50, HT29-L23 cells, necroptosis induced with TNFα, SMAC mimetic and Z-VAD, 6 h, maximal inhibition defined by Nec1s.

By IC50 is commonly meant the concentration that gives 50% inhibition.

Read-outs that look alike come from different tables or passages of the source.

For `COc1ncc(-c2ccn3nc(N)nc3c2)cc1C(=O)NCCC(O)c1ccc(F)cc1` (stereo not shown) [Example 78], the IC50 came out at 120 nM in experiment [1] (Table 23, representative compounds from WO2018/148626, read-out: RIPK1 IC50) and 146 nM in experiment [2] (Homo sapiens, Table 23, representative compounds from WO2018/148626, read-out: pMLKL IC50).

As for `Nc1nc2cc(-c3ccc(Cl)c(C(=O)NCCC(O)c4ccc(Cl)cn4)c3F)ccn2n1` (stereo not shown) [Example 81, 3-(2-amino-[1,2,4]triazolo[1,5-a]pyridin-7-yl)-6-chloro-N-(3-(5-chloropyridin-2-yl)-3-hydroxypropyl)-2-fluorobenzamide], the IC50 in experiment [1] (setting [3]) worked out at 24 nM; in experiment [2] (setting [4]), 38 nM.

As to `[2H]C([2H])([2H])c1ccc(-c2ccn3nc(N)nc3c2)c(F)c1C(=O)NCC(F)(F)C(O)c1ccc(F)cc1` (stereo not shown) [Example 123, 3-(2-amino-[1,2,4]triazolo[1,5-a]pyridin-7-yl)-N-(2,2-difluoro-3-(4-fluorophenyl)-3-hydroxypropyl)-2-fluoro-6-(methyl-d3)benzamide], the IC50 in experiment [1] (setting [3]) turned out to be 5.7 nM; in experiment [2] (setting [4]), 0.8 nM.

For `Cc1ccc(-c2ccn3nc(N)nc3c2)c(F)c1C(=O)NCC(F)(F)C(O)c1ccnc(C(F)(F)F)c1` (single isomer, unassigned) [Example 261, 3-(2-amino-[1,2,4]triazolo[1,5-a]pyridin-7-yl)-N-(2,2-difluoro-3-hydroxy-3-(2-(trifluoromethyl)pyridin-4-yl)propyl)-2-fluoro-6-methylbenzamide], the figures for the IC50 in experiment [1] (setting [3]) and in experiment [2] (setting [5]) were 40 nM and 79 nM, respectively.

Regarding `Nc1nc2cc(-c3ccc(Cl)c(C(=O)NCC(F)(F)C(O)c4cccc(F)c4F)c3F)ccn2n1` (single isomer, unassigned) [Example 167, 3-(2-amino-[1,2,4]triazolo[1,5-a]pyridin-7-yl)-6-chloro-N-(3-(2,3-difluorophenyl)-2,2-difluoro-3-hydroxypropyl)-2-fluorobenzamide], the IC50 came to 15 nM in experiment [1] (setting [3]) and 7.8 nM in experiment [2] (setting [5]).

Regarding `Nc1nc2cc(-c3ccc(Cl)c(C(=O)NCC(F)(F)C(O)c4cc(Cl)ccc4F)c3F)ccn2n1` (stereo not shown) [Example 180, 3-(2-amino-[1,2,4]triazolo[1,5-a]pyridin-7-yl)-6-chloro-N-(3-(5-chloro-2-fluorophenyl)-2,2-difluoro-3-hydroxypropyl)-2-fluorobenzamide], the figures for the IC50 in experiment [1] (setting [3]) and in experiment [2] (setting [5]) were 2 nM and 10 nM, respectively.

Take `Nc1nc2cc(-c3ccc(Cl)c(C(=O)NCC(F)(F)C(O)c4cccc(Cl)c4)c3F)ccn2n1` (stereo not shown) [Example 193, 3-(2-amino-[1,2,4]triazolo[1,5-a]pyridin-7-yl)-6-chloro-N-(3-(3-chlorophenyl)-2,2-difluoro-3-hydroxypropyl)-2-fluorobenzamide]: the IC50 in experiment [1] (setting [3]) is 8.7 nM; in experiment [2] (setting [5]), 15 nM.

For `[2H]C([2H])([2H])C(O)(c1ccc(F)cc1)C(F)CNC(=O)c1c(C(F)F)ccc(-c2ccn3nc(N)nc3c2)c1F` (single isomer, unassigned) [Example 196, 3-(2-amino-[1,2,4]triazolo[1,5-a]pyridin-7-yl)-6-(difluoromethyl)-2-fluoro-N-(2-fluoro-3-(4-fluorophenyl)-3-hydroxybutyl-4,4,4-d3)benzamide], the results for the IC50 in experiment [1] (setting [3]) and in experiment [2] (setting [5]) were 14 nM and 1 nM, respectively.

As for `Cc1ccc(-c2ccn3nc(N)nc3c2C)c(F)c1C(=O)NCC[C@H](O)c1ccc(Cl)cc1` (single isomer, unassigned; enantiomer 1) [Example 137], the IC50 was 9.7 nM in experiment [1] (setting [3]); 0.9 nM in experiment [2] (HT29-L23 cells, necroptosis induced with TNFα, SMAC mimetic and Z-VAD, 6 h, maximal inhibition defined by Nec1s, read-out: pMLKL IC50).

For `[2H]C([2H])([2H])c1ccc(-c2ccn3nc(N)nc3c2)c(F)c1C(=O)NCC(F)(F)C(C)(O)c1ccc(F)cc1` (single isomer, unassigned) [Example 241, 3-(2-amino-[1,2,4]triazolo[1,5-a]pyridin-7-yl)-N-(2,2-difluoro-3-(4-fluorophenyl)-3-hydroxybutyl)-2-fluoro-6-(methyl-d3)benzamide], the results for the IC50 in experiment [1] (setting [3]) and in experiment [2] (setting [4]) were 10 nM and 1.2 nM, respectively.

Consider `Cc1ccc(-c2ccn3nc(N)nc3c2)c(F)c1C(=O)NCC[C@H](O)c1ccc(Cl)cc1` [Example 151, (S)-3-(2-amino-[1,2,4]triazolo[1,5-a]pyridin-7-yl)-N-(3-(4-chlorophenyl)-3-hydroxypropyl)-2-fluoro-6-methylbenzamide], for which the IC50 in experiment [1] (setting [3]) was found to be 2.8 nM; in experiment [1] (Table 22, compounds of the present invention, read-out: RPIK1 IC50), 3.5 nM; in experiment [2] (setting [4]) it was 0.8 nM; in experiment [2] (Homo sapiens, read-out: pMLKL IC50, Table 22, compounds of the present invention) it was 0.8 nM.

In the case of `[2H]C([2H])([2H])OC(c1ccc(F)cc1)C(F)(F)CNC(=O)c1c(C)ccc(-c2ccn3nc(N)nc3c2)c1F` (single isomer, unassigned) [Example 236, 3-(2-amino-[1,2,4]triazolo[1,5-a]pyridin-7-yl)-N-(2,2-difluoro-3-(4-fluorophenyl)-3-(methoxy-d3)propyl)-2-fluoro-6-methylbenzamide], the IC50 in experiment [1] (setting [3]) worked out at 3.4 nM; in experiment [2] (setting [5]) it was 0.9 nM.

For `COC(c1ccc(F)cc1)C(F)(F)CNC(=O)c1c(C)ccc(-c2ccn3nc(N)nc3c2)c1F` (single isomer, unassigned) [Example 233, 3-(2-amino-[1,2,4]triazolo[1,5-a]pyridin-7-yl)-N-(2,2-difluoro-3-(4-fluorophenyl)-3-methoxypropyl)-2-fluoro-6-methylbenzamide], the IC50 came out at 2.6 nM in experiment [1] (setting [3]) and 0.5 nM in experiment [2] (setting [5]).

With `Cc1ccc(C(O)C(F)(F)CNC(=O)c2c(Cl)ccc(-c3ccn4nc(N)nc4c3)c2F)c(F)c1` (stereo not shown) [Example 183, 3-(2-amino-[1,2,4]triazolo[1,5-a]pyridin-7-yl)-6-chloro-N-(2,2-difluoro-3-(2-fluoro-4-methylphenyl)-3-hydroxypropyl)-2-fluorobenzamide], the values for the IC50 in experiment [1] (setting [3]) and in experiment [2] (setting [5]) were 0.4 nM and 1 nM, respectively.

On to `Cc1ccc(-c2ccn3nc(N)nc3c2)c(F)c1C(=O)NCC(F)(F)C(N)c1ccc(F)cc1` (stereo not shown) [Example 275, N-(3-amino-2,2-difluoro-3-(4-fluorophenyl)propyl)-3-(2-amino-[1,2,4]triazolo[1,5-a]pyridin-7-yl)-2-fluoro-6-methylbenzamide], for which the figures for the IC50 in experiment [1] (setting [3]) and in experiment [2] (setting [4]) were 6.5 nM and 1.5 nM, respectively.

Take `Cc1ccc(-c2ccn3nc(N)nc3c2)c(F)c1C(=O)NCCC(C)(O)c1ccc(C#N)cc1` (stereo not shown) [Example 141, 3-{2-amino-[1,2,4]triazolo[1,5-a]pyridin-7-yl}-N-[3-(4-cyanophenyl)-3-hydroxybutyl]-2-fluoro-6-methylbenzamide]: the IC50 in experiment [1] (setting [3]) was 22 nM; in experiment [2] (setting [4]), 38 nM.

With `Cc1ccc(-c2ccn3nc(N)nc3c2)c(F)c1C(=O)NCC(C)(F)C(O)c1ccc(F)cc1` (single isomer, unassigned) [Example 203, 3-(2-amino-[1,2,4]triazolo[1,5-a]pyridin-7-yl)-2-fluoro-N-(2-fluoro-3-(4-fluorophenyl)-3-hydroxy-2-methylpropyl)-6-methylbenzamide], the results for the IC50 in experiment [1] (setting [3]) and in experiment [2] (setting [5]) were 5.6 nM and 2.7 nM, respectively.

For `Cc1cc(F)c(-c2ccn3nc(N)nc3c2)cc1C(=O)NCC(F)(F)C(C)(O)c1ccc(Cl)cc1` (single isomer, unassigned) [Example 226, 5-(2-amino-[1,2,4]triazolo[1,5-a]pyridin-7-yl)-N-(3-(4-chlorophenyl)-2,2-difluoro-3-hydroxybutyl)-4-fluoro-2-methylbenzamide], the IC50 was found to be 8.3 nM in experiment [1] (setting [3]) and 2.2 nM in experiment [2] (setting [5]).

For `Cc1ccc(-c2ccn3nc(N)nc3c2)c(F)c1C(=O)NCC(F)(F)C(O)c1c(F)cc(F)cc1F` (single isomer, unassigned) [Example 284, 3-(2-amino-[1,2,4]triazolo[1,5-a]pyridin-7-yl)-N-(2,2-difluoro-3-hydroxy-3-(2,4,6-trifluorophenyl)propyl)-2-fluoro-6-methylbenzamide], the values for the IC50 in experiment [1] (setting [3]) and in experiment [2] (setting [5]) were 3.5 nM and 1.1 nM, respectively.

For `Cc1ccc(-c2ccn3nc(N)nc3c2)c(F)c1C(=O)NCCC(O)c1cccc(C#N)c1` (stereo not shown) [Example 140, 3-{2-amino-[1,2,4]triazolo[1,5-a]pyridin-7-yl}-N-[3-(3-cyanophenyl)-3-hydroxypropyl]-2-fluoro-6-methylbenzamide], the IC50 in experiment [1] (setting [3]) was found to be 0.6 nM; in experiment [2] (setting [4]), 13 nM.

As to `Nc1nc2cc(-c3ccc(Cl)c(C(=O)NCC(F)(F)C(O)c4cccc(Cl)n4)c3F)ccn2n1` (single isomer, unassigned) [Example 262, 3-(2-amino-[1,2,4]triazolo[1,5-a]pyridin-7-yl)-6-chloro-N-(3-(6-chloropyridin-2-yl)-2,2-difluoro-3-hydroxypropyl)-2-fluorobenzamide], the figures for the IC50 in experiment [1] (setting [3]) and in experiment [2] (setting [4]) were 14 nM and 45 nM, respectively.

Turning to `[2H]C([2H])([2H])c1ccc(-c2ccn3nc(N)nc3c2)c(F)c1C(=O)NCC(F)(F)C(C)(O)c1ccc(Cl)cc1` (single isomer, unassigned) [Example 252, 3-(2-amino-[1,2,4]triazolo[1,5-a]pyridin-7-yl)-N-(3-(4-chlorophenyl)-2,2-difluoro-3-hydroxybutyl)-2-fluoro-6-(methyl-d3)benzamide], the IC50 in experiment [1] (setting [3]) is 7.2 nM; in experiment [2] (setting [5]) it was 2.7 nM.

Source of the values: patent US11767322B2 (BRISTOL-MYERS SQUIBB COMPANY, priority 2020, dated 2023).
